Assay [1] can be described thus: Induction of chondrogenesis in human MSC assessed as maximum activity at 10 nM incubated for 6 days by rhodamine B and Nile red staining based imaging analysis relative to control. It counts as functional. The settings on record: BMMSC, 144 h, time 6 day.
Assay [2] can be described thus: Effect on Wnt signaling pathway in human SW480 cells harbouring TCF/LEF luciferase reporter gene and SP5-Luc reporter gene incubated for 36 to 48 hrs by luminescence assay. It counts as cell-based. (In general: A reporter such as luciferase makes a cellular process visible.)
Assay [3] concerns the target Dual specificity tyrosine-phosphorylation-regulated kinase 1A (Homo sapiens, UniProt Q13627). The assay is described as follows: Inhibition of recombinant DYRK1A (unknown origin) using Ser/Thr 18 peptide as substrate incubated for 1 hr in presence of ATP by FRET assay.
Assay [4] in a line: Inhibition of IL1-beta induced MMP3 expression levels in human chondrocytes assessed as MMP3 levels incubated for 2hrs followed by IL1-beta stimulation and measured after overnight incubation by LANCE assay. It counts as functional, cell-based. As to conditions: Chondrocyte. In general terms: Time-resolved FRET reads energy transfer from a long-lived donor to a nearby acceptor.

Our source for the Emax and EC50 values is ChEMBL document CHEMBL4739717, “Methods of treating cartilage disorders through inhibition of clk and dyrk” (2020).

The structures appear in SMILES notation.

In the case of `COc1cncc(C(=O)Nc2c[nH]nc2C(=O)Nc2ccc(N3CCNCC3)nc2)c1`, the Emax at 0.01 µM in assay [1] turned out to be 90.7%. The values for the EC50 in assay [2] and in assay [3] were 681 nM and 7 nM, respectively.

Turning to `CC(C)CC(=O)Nc1cncc(-c2ccc3[nH]nc(-c4cc5c(-c6cc(F)cc(CNS(C)(=O)=O)c6)nccc5[nH]4)c3n2)c1`, the Emax at 0.01 µM in assay [1] came to 33.1%. Also, the EC50 in assay [2] amounted to 479 nM; in assay [3], 14 nM.

Turning to `CN(C)Cc1cncc(-c2ccc3[nH]nc(-c4nc5c(-c6cccc(F)c6)cncc5[nH]4)c3n2)c1`, in assay [1], the Emax at 0.01 µM amounted to 16.7%. The concentration for a half-maximal effect (EC50) in assay [2] is 1050 nM; in assay [3] it was 62 nM.

For the compound `CC(C)CC(=O)Nc1cncc(-c2ccc3[nH]nc(-c4nc5c(-c6cc(F)cc(NCCN(C)C)c6)cncc5[nH]4)c3c2)c1`, in assay [1], the Emax at 0.01 µM is 82%. For the same compound, the EC50 turned out to be 22 nM in assay [2] and 10 nM in assay [3].

For `CS(=O)(=O)NCc1cc(F)cc(-c2cncc3[nH]c(-c4n[nH]c5cnc(-c6cncc(NC(=O)C7CCC7)c6)cc45)cc23)c1`, the maximal effect (Emax) at 0.01 µM in assay [1] came to 15.5%. Moreover, the EC50 in assay [2] was more than 10000 nM; in assay [3], 32 nM.

In the case of `c1cncc(-c2ccc3[nH]nc(-c4cc5c(-c6cccnc6)ccnc5[nH]4)c3c2)c1`, the Emax at 0.01 µM in assay [1] is 16.7%. In addition, the results for the half-maximal effective concentration (EC50) in assay [2] and in assay [3] were more than 10000 nM and 34 nM, respectively.

In the case of `CCC(=O)Nc1cncc(-c2ccc3[nH]nc(-c4cc5c(-c6cccc(F)c6)nccc5[nH]4)c3c2)c1`, the maximum response (Emax) at 0.01 µM in assay [1] worked out at 16.2%. The EC50 came out at 45 nM in assay [2] and 18 nM in assay [3].

On to `c1cc(-c2ccoc2)c2cc(-c3n[nH]c4ccc(-c5cncc(CNCC6CCCC6)c5)nc34)[nH]c2c1`, for which, in assay [1], the maximum response (Emax) at 0.01 µM stood at 25.3%. Moreover, the EC50 was determined as 3640 nM in assay [2] and 59 nM in assay [3].

Consider `CCNCc1cncc(-c2cnc3[nH]nc(-c4nc5c(-c6cccc(F)c6)cccc5[nH]4)c3c2)c1`, for which the Emax at 0.01 µM in assay [1] came out at 98.7%. Also, the figures for the EC50 in assay [2] and in assay [3] were 40.9 nM and 48 nM, respectively.

On to `CC(C)CC(=O)Nc1cncc(-c2cnc3[nH]nc(-c4cc5c(-c6cccnc6)ccnc5[nH]4)c3c2)c1`, for which, in assay [1], the maximum response (Emax) at 0.01 µM came to 43.5%. The concentration giving a half-maximal response (EC50) in assay [2] is more than 10000 nM; in assay [3], 5 nM.

In the case of `Cc1ncc(-c2ccc3[nH]nc(-c4nc5c(-c6cc(F)cc(NCCN(C)C)c6)ccnc5[nH]4)c3n2)n1C`, the results for the EC50 in assay [2], in assay [3] and in assay [4] were 620 nM, 8 nM and 12.8 nM, respectively.

For `O=C(Nc1ccc(CN2CCCC2)cc1)c1n[nH]c2ccc(-c3cccnc3F)cc12`, the figures for the EC50 in assay [2], in assay [3] and in assay [4] were 196 nM, 1 nM and 3000 nM, respectively.

`O=C(Nc1ccc(N2CCNCC2)nc1)c1n[nH]cc1/C=C/c1cccnc1`: the 50% effective concentration (EC50) in assay [2] is 1650 nM; in assay [3], 1 nM; in assay [4], 0.2 nM.

Consider `CC#CC(=O)Nc1cc2cc(-c3cnn(C)c3)ccc2cn1`, for which the 50% effective concentration (EC50) was 513 nM in assay [2], 6 nM in assay [3] and 32.8 nM in assay [4].

Consider `Cc1ncc(NC(=O)c2n[nH]c3ccc(-c4cnn(C5CCN(C)CC5)c4)cc23)s1`, for which the EC50 stood at 95 nM in assay [2], 3 nM in assay [3] and 3000 nM in assay [4].

Turning to `O=C(Nc1ccc(OC(F)F)cc1)c1n[nH]c2ccc(-c3cnc4n3CCNC4)cc12`, the figures for the EC50 in assay [2], in assay [3] and in assay [4] were 684 nM, 16 nM and 13 nM, respectively.

Take `Fc1cccc(-c2cncc3[nH]c(-c4n[nH]c5cnc(-c6cncc(OC7CCNCC7)c6)cc45)nc23)c1`: the concentration for a half-maximal effect (EC50) in assay [2] is more than 10000 nM; in assay [3] it was 5 nM; in assay [4], 1710 nM.

`CN1CCC(Oc2ccc(NC(=O)c3n[nH]cc3/C=C/c3cccnc3)cn2)CC1`: the EC50 in assay [2] turned out to be 964 nM; in assay [3], 1 nM; in assay [4], 3000 nM.

On to `O=C(Nc1cncc(-c2ccc3[nH]nc(-c4nc5c(-c6cccnc6)cncc5[nH]4)c3c2)c1)c1ccccc1`, for which the concentration giving a half-maximal response (EC50) was more than 10000 nM in assay [2], 6 nM in assay [3] and 1.9 nM in assay [4].

Take `COc1cncc(C(=O)Nc2c[nH]nc2C(=O)Nc2ccc(CN(C)C)cc2)c1`: the half-maximal effective concentration (EC50) in assay [2] is 123 nM; in assay [3], 10 nM; in assay [4], 3000 nM.

For the compound `CC(C)n1cc(C(=O)Nc2cc3cc(-c4cncc(NC5CCN(C)CC5)n4)ncc3cn2)cn1`, the EC50 stood at 164 nM in assay [2], 1 nM in assay [3] and 3000 nM in assay [4].

With `c1cncc(-c2cnc3[nH]nc(-c4cc5cccnc5[nH]4)c3c2)c1`, in assay [1], the Emax at 0.01 µM stood at 11%. Also, the results for the EC50 in assay [2] and in assay [3] were 1060 nM and 9 nM, respectively.

In the case of `O=C(Nc1cccnc1)c1n[nH]c2ccc(-c3cncc(CN4CC(CO)(CO)C4)c3)cc12`, the half-maximal effective concentration (EC50) in assay [2] is more than 10000 nM; in assay [3], 2 nM; in assay [4], 69.7 nM.

Take `COc1ccc(NC(=O)c2n[nH]cc2/C=C/c2cncc(CN3CCCCC3)c2)cn1`: the figures for the EC50 in assay [2], in assay [3] and in assay [4] were 1450 nM, 5 nM and 3000 nM, respectively.

Turning to `CC(C)n1cc(C(=O)Nc2cc3cc(-c4cncn4C)ccc3cn2)cn1`, the EC50 in assay [2] was 34.8 nM; in assay [3], 2 nM; in assay [4], 1430 nM.

On to `O=C(CC1CCNCC1)Nc1cncc(-c2cc3c(-c4nc5c(-c6cccc(F)c6)ccnc5[nH]4)n[nH]c3cn2)c1`, for which the Emax at 0.01 µM in assay [1] came out at 54.7%. For the same compound, the EC50 in assay [2] is 345 nM; in assay [3], 5 nM.

Turning to `Cc1cn(-c2cncc3[nH]c(-c4n[nH]c5ccc(-c6cncc(NC(=O)CC(C)C)c6)cc45)nc23)cn1`, the results for the concentration for a half-maximal effect (EC50) in assay [2], in assay [3] and in assay [4] were 4570 nM, 1 nM and 845 nM, respectively.

As for `O=C(Nc1cncc(-c2ccc3[nH]nc(-c4nc5c(-c6ccccc6F)cccc5[nH]4)c3n2)c1)C(F)(F)F`, the maximal response (Emax) at 0.01 µM in assay [1] came out at 40.1%. The values for the EC50 in assay [2] and in assay [3] were 823 nM and 30 nM, respectively.

In the case of `O=C(Nc1ccc(N2CCCC2)nc1)c1n[nH]c2ccc(-c3cncc(CN4CCC4)c3)cc12`, the figures for the EC50 in assay [2], in assay [3] and in assay [4] were more than 10000 nM, 3 nM and 3000 nM, respectively.

On to `Cc1n[nH]c2ccc(-c3cncc(OC[C@@H]4Cc5ccccc5CN4)n3)cc12`, for which the half-maximal effective concentration (EC50) in assay [2] stood at 2810 nM; in assay [3] it was 56 nM; in assay [4], 3000 nM.

Consider `CC(C)CC(=O)Nc1cncc(-c2cc3c(-c4nc5c(-c6ccoc6)cccc5[nH]4)n[nH]c3cn2)c1`, for which the Emax at 0.01 µM in assay [1] came to 58%. The EC50 in assay [2] was found to be 55.3 nM; in assay [3] it was 38 nM.

Regarding `COc1ccc(NC(=O)c2n[nH]c3ccc(-c4cncc(CO)c4)cc23)cn1`, the EC50 in assay [2] turned out to be 96.6 nM; in assay [3], 1 nM; in assay [4], 3000 nM.

`Fc1ccc(-c2cncc3[nH]c(-c4n[nH]c5ncc(-c6cncnc6)cc45)cc23)cc1`: the Emax at 0.01 µM in assay [1] amounted to 23.8%. In addition, the half-maximal effective concentration (EC50) in assay [2] stood at 594 nM; in assay [3] it was 21 nM.

As to `O=C(Nc1cncc(-c2cc3c(-c4nc5c(-c6cccs6)nccc5[nH]4)n[nH]c3cn2)c1)C1CC1`, in assay [1], the maximal effect (Emax) at 0.01 µM is 68.3%. For the same compound, the concentration giving a half-maximal response (EC50) in assay [2] was found to be 22.2 nM; in assay [3], 35 nM.

Take `O=C(Nc1cccnc1)c1n[nH]c2cnc(-c3cncc(CN4CCCCC4)c3)cc12`: the values for the EC50 in assay [2], in assay [3] and in assay [4] were 848 nM, 4 nM and 138 nM, respectively.

`CN1CCC(Oc2ccc(NC(=O)c3n[nH]c4cc(F)c(-c5cnn(C)c5)cc34)cn2)CC1`: the 50% effective concentration (EC50) was 120 nM in assay [2], 1 nM in assay [3] and 1080 nM in assay [4].

For the compound `O=C(Nc1ccc(OC(CO)CO)nc1)c1n[nH]c2ccc(-c3cncc(CN4CCCCC4)c3)cc12`, the figures for the EC50 in assay [2], in assay [3] and in assay [4] were 500 nM, 4 nM and 303 nM, respectively.

With `COc1cncc(C(=O)Nc2c[nH]nc2C(=O)Nc2ccc3c(c2)CCN(C)C3)c1`, the concentration for a half-maximal effect (EC50) in assay [2] amounted to 558 nM; in assay [3] it was 8 nM; in assay [4] it was 3000 nM.

As for `c1cncc(-c2cc3c(-c4nc5c(-c6cccnc6)nccc5[nH]4)n[nH]c3cn2)c1`, the maximal response (Emax) at 0.01 µM in assay [1] amounted to 44.5%. Also, the concentration giving a half-maximal response (EC50) amounted to 28.3 nM in assay [2] and 29 nM in assay [3].

As to `CN1CCC(n2cc(C(=O)Nc3cc4cc(-c5cncc6[nH]ccc56)ccc4cn3)cn2)CC1`, the concentration for a half-maximal effect (EC50) in assay [2] amounted to 13.3 nM; in assay [3] it was 3 nM; in assay [4] it was 40.1 nM.

For `Cc1ccncc1-c1cc2c(-c3nc4c(-c5cc(F)cc(CNS(C)(=O)=O)c5)cncc4[nH]3)n[nH]c2cn1`, the values for the concentration giving a half-maximal response (EC50) in assay [2], in assay [3] and in assay [4] were 96.6 nM, 6 nM and 604 nM, respectively.

Take `Nc1ncc(NC(=O)c2n[nH]c3ccc(-c4cncc(CN5CCCCC5)c4)cc23)cn1`: the results for the half-maximal effective concentration (EC50) in assay [2], in assay [3] and in assay [4] were 30 nM, 1 nM and 180 nM, respectively.

For the compound `CCN(C)Cc1cncc(-c2cnc3[nH]nc(-c4nc5c(-c6cccc(F)c6)cncc5[nH]4)c3c2)c1`, the 50% effective concentration (EC50) in assay [2] came to 643 nM; in assay [3], 8 nM; in assay [4], 0.8 nM.

For `Cn1cc(-c2cc3c(C(=O)Nc4ccc(OCCN5CCCC5)cc4)n[nH]c3cc2F)cn1`, the concentration giving a half-maximal response (EC50) turned out to be 315 nM in assay [2], 1 nM in assay [3] and 3000 nM in assay [4].

`CCNCc1cncc(-c2ccc3[nH]nc(-c4nc5c(-c6ccccn6)nccc5[nH]4)c3c2)c1`: the results for the concentration giving a half-maximal response (EC50) in assay [2], in assay [3] and in assay [4] were 2130 nM, 10 nM and 2.4 nM, respectively.

With `CN1CCC(Nc2cc(C(=O)Nc3cc4cc(-c5cnn(C)c5)ccc4cn3)ccn2)CC1`, the EC50 in assay [2] worked out at 65.6 nM; in assay [3] it was 2 nM; in assay [4] it was 3000 nM.

`CC(C)CC(=O)Nc1cncc(-c2cnc3[nH]nc(-c4nc5c(-c6cccc(F)c6)cncc5[nH]4)c3c2)c1`: the figures for the EC50 in assay [2], in assay [3] and in assay [4] were 0.6 nM, 2 nM and 3000 nM, respectively.

A word on the Emax: it is the size of the effect at its maximum, as opposed to the concentration needed. Usually EC50 stands for the concentration at which the effect is half-maximal.
